# Results as given in patent publication US20240254119A1 (THIRD HARMONIC BIO, INC., priority 2022, published 2024).
# Key:
# CSF-1R = molecular target: T1, CSF-1R (Homo sapiens, UniProt P07333); test: Caliper biochemical assay, CSF-1R; conditions: Table 6
# T1 construct: purchased Invitrogen PV3249 (lot 662393N)
# Method in brief: (§1)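 Mobility-shift readout: after EDTA quench, fluorescent peptide and product are resolved electrophoretically on a LabChip and measured by fluorescence. Reactions contain enzyme, carboxyfluorescein peptide, ATP, Mn^2+ and compound, run 3 h at 25° C; 100% inhibition control lacks enzyme.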
# Kinetic solubility assay = type: physicochemical; conditions: kinetic solubility, 50 mM PB (pH 7.4), shaken 24 hours at RT
# Method in brief: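 Concentration in the filtrate was determined by UPLC-UV or HPLC-UV with a standard curve. Before that, compound (10 mM DMSO stock) in 50 mM PB at pH 7.4 was agitated 24 h at room temperature, then PTFE-filtered with centrifugation.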
# PDGFRα = molecular target: T2, PDGFRα (Homo sapiens, UniProt P16234); test: Caliper biochemical assay, PDGFRα; conditions: Table 6
# T2 construct: purchased Millipore 14-467 (lot 26321_ACTI)
# Method in brief: as §1
# [1] = system: KIT phosphorylation in M-07e cells; test: Cell-based KIT phosphorylation in M-07e cells by pKIT ELISA; set-up: species or system human; conditions: SCF stimulation
# Procedure: Exemplary compounds were tested for ability to inhibit KIT phosphorylation using M-07e cells as monitored by pKIT ELISA. M-07e cells are also represented as M-07E, M-07e, M07-e, M07e, Mo7e, MO7e, M07E and MO7E. Assay procedures and results are described below.
# Part I—Procedures for Determining KIT Inhibition inM-07e Cells Using pKTT ELISA Reagents and consumables: • M-07e cells: Initially obtained from Accegen, cat #ABC-TC1313 • p-cKIT Capture ELISA antibody: anti-Human Phospho-CD117/c-kit, R&D cat #DYC3527-5 • Anti-pY-HIRP antibody: R&D cat #DYC3527-5 • 25× wash buffer: Quantikine ELISA Wash Buffer 1, R&D cat #WA126 • PBS: R&D cat #DY006 • 96 well ELISA plates: Clear Polystyrene Microplates, R&D Cat #DY990 • 96 well Tissue culture plates: Corning® 96 Well TC-Treated Microplates, cat #CLS3894 • RPMI medium: ATCC® RPMI-1640 Medium, Cat #30-2001 • FBS: Fetal Bovine Serum, certified, United States Gibco, Thermo-Fisher 16000044 • GM-CSF: Recombinant Human GM-CSF Protein, R&D cat #215-GM • SCF: Recombinant Human SCF Protein, R&D cat #255-SC
# • 1. Prepare cells: • a. Culture M-07e cells in RPMI medium+20% serum+GM-CSF+penstrep • To make 50 mL of growth medium • i. 40 mL RPMI media • ii. 10 mL FBS • iii. 10 uL of GM-CSF (100 ug/mL stock) • iv. 0.5 mL pen strep (100×) • b. Harvest cells • c. Re-suspend cells in 100% RPMI media (without serum) to final concentration of 1 million cells/mL • d. Transfer 100 uL of cell solution to 11 columns of a 96 well flat bottom cell culture plate • e. Incubate cells over night at 37 C • 2. Prepare ELISA Plates: • a. Dilute capture antibody to concentration 4 ug/mL in PBS • b. Coat 96 well microplates with 100 uL of capture antibody • c. Seal plates and incubate at RT overnight • d. Wash plates with 300 uL of wash buffer • e. Repeat wash • f. Treat plates with 300 uL of blocking buffer at RT for 1 hour • 3. Addition of compounds: • a. Prepare compound dilutions in RPMI media • i. Top test concentration is 1 uM • ii. Serially dilute compounds 3× for a total of 8 concentrations • b. Add 10 uL of 10× compound dilutions to cells • i. No compounds added in column 11 (for controls) • c. Incubate cells with compounds for 2 hours at 37 C • d. Stimulate cells with SCF for 5 min at concentration of 100 ng/mL (final) • i. In column 11 stimulate top 4 wells. Leave bottom 4 wells unstimulated • e. Remove cell culture media with multichannel pipet • f. Add 110 uL of Lysis buffer to all wells • g. Incubate plates at RT for 30 min while shaking • 4. Transfer 100 uL of cell lysis to each prepared Elisa plate • 5. Add 100 uL of the standard pc-KIT dilutions to the standard wells in column 12 • a. Top concentration=2000 pg/mL • b. 2× dilutions • 6. Incubate ELISA plate with cell lysate for 2 hours at RT • 7. Wash Plate with wash buffer (wash 1) • 8. Repeat wash (wash 2) • 9. […] Add 100 uL of diluted anti-pY-HRP (1/1000 dilution in detection antibody dilution buffer) and incubate 2 hours at RT • 11. Wash plate with wash buffer (wash 1) • 12. Repeat wash (wash 2) • 13. Repeat wash (wash 3) • 14. Add 100 uL of substrate solution to each well • 15. Incubate plates 20 min • Note: Plate development is indicated by aqua color • 16. Add 50 uL of stop solution to each well • 17. Determine optical density on Bitek Synergy Neo2: • a. Make new experiment
# Select absorbance 1 set to 450 nm
# wtKIT [2] = molecular target: T3, wtKIT (Homo sapiens, UniProt P10721); test: Caliper biochemical assay, wtKIT; conditions: Table 6, read-out: KIT Biochemical IC50 avg
# T3 construct: 1888289AM in the reaction mixtures
# Method in brief: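 Mobility-shift read-out: after EDTA stop, fluorescent peptide substrate and product resolved electrophoretically on LabChip 3000. Reaction ran 3 h at 25° C with 400 μM ATP, Mn^2+ cofactor, 5.0 nM wtKIT, 1 μM FAM-peptide, pH 7.5 HEPES buffer; no-enzyme wells defined full inhibition.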
# wtKIT [3] = molecular target: T3, wtKIT; test: HTRF biochemical assay, wtKIT (phosphorylation of a peptide substrate); conditions: Table 4
# Method in brief: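 HTRF read-out of FAM-peptide (1 µM) phosphorylation after anti-phosphotyrosine antibody addition and EDTA quench. Reaction: 5.0 nM wtKIT, 400 µM ATP, 10 mM Mn2+, HEPES pH 7.5, 1% DMSO, 3 h, 25 °C; optional enzyme-compound preincubation; enzyme level set for 10-20% conversion.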
# T3 sequence (P10721 26-976): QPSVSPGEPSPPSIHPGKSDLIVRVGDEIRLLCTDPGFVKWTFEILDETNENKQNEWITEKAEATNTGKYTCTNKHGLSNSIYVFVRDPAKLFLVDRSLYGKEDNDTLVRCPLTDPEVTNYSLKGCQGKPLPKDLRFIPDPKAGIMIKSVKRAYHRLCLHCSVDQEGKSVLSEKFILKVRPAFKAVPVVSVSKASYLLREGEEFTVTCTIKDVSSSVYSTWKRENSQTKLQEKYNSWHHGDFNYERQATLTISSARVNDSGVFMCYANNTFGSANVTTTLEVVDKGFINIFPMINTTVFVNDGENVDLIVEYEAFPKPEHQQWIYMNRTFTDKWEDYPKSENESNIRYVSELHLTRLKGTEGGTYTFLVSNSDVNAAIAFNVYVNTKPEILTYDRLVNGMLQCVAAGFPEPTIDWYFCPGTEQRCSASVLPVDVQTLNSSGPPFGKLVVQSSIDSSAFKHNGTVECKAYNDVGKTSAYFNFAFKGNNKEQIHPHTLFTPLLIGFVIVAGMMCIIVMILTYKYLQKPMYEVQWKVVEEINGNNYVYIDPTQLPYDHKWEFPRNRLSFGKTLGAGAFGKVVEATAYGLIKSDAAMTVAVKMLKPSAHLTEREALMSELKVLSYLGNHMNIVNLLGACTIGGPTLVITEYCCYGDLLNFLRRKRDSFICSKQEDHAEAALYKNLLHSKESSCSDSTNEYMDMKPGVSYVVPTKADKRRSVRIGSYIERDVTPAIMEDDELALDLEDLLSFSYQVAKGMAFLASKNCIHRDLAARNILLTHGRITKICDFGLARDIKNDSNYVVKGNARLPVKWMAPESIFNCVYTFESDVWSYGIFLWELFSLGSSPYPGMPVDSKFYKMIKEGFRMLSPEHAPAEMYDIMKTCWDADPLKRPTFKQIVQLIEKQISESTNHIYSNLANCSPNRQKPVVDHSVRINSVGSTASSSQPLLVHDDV
# T2 sequence (P16234 24-1089): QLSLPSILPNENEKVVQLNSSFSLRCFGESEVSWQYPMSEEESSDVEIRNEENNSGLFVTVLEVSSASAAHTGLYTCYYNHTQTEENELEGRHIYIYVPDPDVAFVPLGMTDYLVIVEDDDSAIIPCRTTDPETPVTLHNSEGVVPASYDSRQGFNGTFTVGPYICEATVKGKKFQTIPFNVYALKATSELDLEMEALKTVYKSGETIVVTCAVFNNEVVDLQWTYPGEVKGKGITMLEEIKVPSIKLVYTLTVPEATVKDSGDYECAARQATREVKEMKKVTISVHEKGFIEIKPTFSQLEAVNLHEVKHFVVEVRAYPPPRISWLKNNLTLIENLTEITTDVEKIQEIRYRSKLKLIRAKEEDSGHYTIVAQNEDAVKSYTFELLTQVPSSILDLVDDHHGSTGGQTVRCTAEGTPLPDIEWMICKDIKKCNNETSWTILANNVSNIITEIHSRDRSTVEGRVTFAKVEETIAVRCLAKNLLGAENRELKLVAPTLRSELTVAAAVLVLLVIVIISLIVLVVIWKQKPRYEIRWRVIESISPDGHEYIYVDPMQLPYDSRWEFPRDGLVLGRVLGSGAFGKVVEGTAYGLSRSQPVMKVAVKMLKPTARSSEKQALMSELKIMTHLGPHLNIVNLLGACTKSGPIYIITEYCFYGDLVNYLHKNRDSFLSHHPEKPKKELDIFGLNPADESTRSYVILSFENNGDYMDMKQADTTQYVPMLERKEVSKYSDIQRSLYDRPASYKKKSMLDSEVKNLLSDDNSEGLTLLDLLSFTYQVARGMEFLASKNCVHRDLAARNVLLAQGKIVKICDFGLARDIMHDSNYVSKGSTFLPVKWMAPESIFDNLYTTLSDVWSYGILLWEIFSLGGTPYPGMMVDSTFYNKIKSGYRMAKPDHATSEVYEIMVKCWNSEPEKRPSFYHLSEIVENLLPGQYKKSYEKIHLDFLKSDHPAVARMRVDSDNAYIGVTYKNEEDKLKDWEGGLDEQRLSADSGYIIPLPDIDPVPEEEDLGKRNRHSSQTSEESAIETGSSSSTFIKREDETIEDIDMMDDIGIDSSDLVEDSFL
# T1 sequence (P07333 20-972): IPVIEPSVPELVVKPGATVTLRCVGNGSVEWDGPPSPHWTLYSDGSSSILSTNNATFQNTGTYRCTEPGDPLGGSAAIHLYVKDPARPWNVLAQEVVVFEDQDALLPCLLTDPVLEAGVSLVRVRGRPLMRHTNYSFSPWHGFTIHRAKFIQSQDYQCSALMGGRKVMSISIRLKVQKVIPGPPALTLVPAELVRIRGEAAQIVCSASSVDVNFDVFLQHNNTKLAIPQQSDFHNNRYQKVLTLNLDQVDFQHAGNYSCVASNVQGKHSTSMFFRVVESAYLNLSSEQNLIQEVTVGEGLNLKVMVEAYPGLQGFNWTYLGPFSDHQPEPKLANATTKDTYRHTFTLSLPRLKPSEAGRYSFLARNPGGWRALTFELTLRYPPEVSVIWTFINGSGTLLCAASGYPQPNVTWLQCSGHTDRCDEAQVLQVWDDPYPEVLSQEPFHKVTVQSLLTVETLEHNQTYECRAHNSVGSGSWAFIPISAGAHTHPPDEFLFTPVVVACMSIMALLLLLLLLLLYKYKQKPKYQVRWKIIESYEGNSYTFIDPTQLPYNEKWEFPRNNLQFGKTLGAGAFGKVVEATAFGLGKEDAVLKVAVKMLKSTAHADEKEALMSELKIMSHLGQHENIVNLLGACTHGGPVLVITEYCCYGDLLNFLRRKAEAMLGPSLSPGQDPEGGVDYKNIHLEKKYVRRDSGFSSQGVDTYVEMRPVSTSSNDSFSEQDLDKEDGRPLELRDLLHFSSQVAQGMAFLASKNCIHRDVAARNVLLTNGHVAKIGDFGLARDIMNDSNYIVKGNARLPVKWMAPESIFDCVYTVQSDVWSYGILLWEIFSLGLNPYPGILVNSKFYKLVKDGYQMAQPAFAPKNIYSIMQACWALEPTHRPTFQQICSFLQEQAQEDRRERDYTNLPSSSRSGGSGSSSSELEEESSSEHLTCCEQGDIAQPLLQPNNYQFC
Compound,IC50 (CSF-1R) [nM],Solubility (μM) (Kinetic solubility assay),IC50 (PDGFRα) [nM],IC50 [1] [nM],IC50 (wtKIT [2]) [nM],IC50 (wtKIT [3]) [nM]
Cc1ccc(-c2noc([C@@H]3CCN3S(=O)(=O)c3cccnc3)n2)cc1NC(=O)c1cnc2ccccn12 [Compound I-185],≤ 50,**** (a solubility less than or equal to 2 μM),50 to 500,≤ 50,≤ 50,–
COCc1ccn2c(C(=O)Nc3cc(-c4noc(C5CN(C(=O)OC)C5)n4)ccc3C)cnc2c1 [Compound I-140],50 to 500,*** (a solubility greater than 2 μM and less than or equal to 10 μM),5000 to 30000,50 to 500,≤ 50,–
Cc1ccc(-c2noc(N3CCC(F)(F)CC3)n2)cc1NC(=O)c1cnc2ccccn12 [Compound I-214],–,*** (a solubility greater than 2 μM and less than or equal to 10 μM),–,50 to 500,≤ 50,50 to 500
CCCS(=O)(=O)N1CCC1c1nc(-c2ccc(C)c(NC(=O)c3cnc4ccccn34)c2)no1 (stereo not drawn) [Compound I-242],–,*** (a solubility greater than 2 μM and less than or equal to 10 μM),–,50 to 500,≤ 50,≤ 50
Cc1ccc(-c2noc(C[C@H](C)O)n2)cc1NC(=O)c1cnc2cc(C(F)F)ccn12 [Compound I-82],–,**** (a solubility less than or equal to 2 μM),–,50 to 500,–,–
O=C(Nc1cc(-c2noc([C@@H]3CC(F)(F)CN3)n2)ccc1Cl)c1cnc2ccccn12 [Compound I-221],50 to 500,**** (a solubility less than or equal to 2 μM),5000 to 30000,50 to 500,≤ 50,50 to 500
Cc1nc(-c2ccc(C)c(NC(=O)c3cnn4ccccc34)c2)no1 [Compound I-428],500 to 5000,–,500 to 5000,≤ 50,≤ 50,–
Cc1ccc(-c2noc([C@@H]3CC4(CC4)CN3)n2)cc1NC(=O)c1cnc2ccccn12 [Compound I-230],≤ 50,** (a solubility greater than 10 μM and less than or equal to 50 μM),50 to 500,≤ 50,≤ 50,≤ 50
